Assay results taken from US20260284066A1, “TYK2 INHIBITORS AND COMPOSITIONS AND METHODS THEREOF” (LYNK PHARMACEUTICALS CO. LTD., priority 2023, published 2026).
Values after ≈ are worked out from the molar mass of the structure shown.

How the values were obtained:
[1] = biological target: T1, TYK2-JH2 domain (Homo sapiens, UniProt P29597); assay: Binding activity test for TYK2 JH2 domain (Tb-antibody/tracer FRET); conditions: for JAK1/TYK2 selectivity: ratio of JAK1 JH2 to TYK2 JH2 binding IC50; for IC50: read-out: TYK2 JH2 Binding IC50
T1 construct: JAK1-JH2 domain or TYK2-JH2 domain enzyme
T1 sequence (P29597 589-875 limits assumed): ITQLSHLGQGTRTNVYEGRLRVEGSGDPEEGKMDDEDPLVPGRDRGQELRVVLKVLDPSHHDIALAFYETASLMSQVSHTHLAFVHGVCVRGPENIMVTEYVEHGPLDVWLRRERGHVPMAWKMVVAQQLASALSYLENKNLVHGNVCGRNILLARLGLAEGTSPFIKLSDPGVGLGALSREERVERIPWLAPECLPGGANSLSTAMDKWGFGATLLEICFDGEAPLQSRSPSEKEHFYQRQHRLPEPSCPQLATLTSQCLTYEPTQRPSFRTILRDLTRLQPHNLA

[2] = Microsomal metabolic stability assay; type: in vitro ADME, human; conditions: for microsomal CLint at 1 µM / half-life at 1 µM: human, liver microsomes, pH 7.4, human liver microsomes 0.5 mg/mL; for microsomal CLint at 1 µM: read-out: Human LM Clint; for half-life at 1 µM: read-out: Human LM T½
Procedure: Microsomal Metabolic Stability Assay
Microsomes were pre-incubated with test compound or control compounds for 5 min at 37° C. in 100 mM potassium phosphate buffer, pH 7.4, 1.0 mM EDTA. The reaction was initiated by addition of 15 μL of the NADPH regenerating system to 30 μL of each incubation mixture per time point. The final incubation condition was composed of 0.5 mg/mL microsomal protein, 1 μM test article/positive control, 2 mM NADPH. The 0-minute samples were prepared by addition of a 30 μL aliquot of each incubation mixture to 135 μL quench reagent to precipitate proteins. And then a 15 μL aliquot of the NADPH regenerating system was added. At 5, 15, 30 and 45 minutes, the reaction will be stopped by the addition of cold acetonitrile solution containing internal standard. The samples taken at all time points were centrifuged at 5000×g for 15 minutes. 50 μL of supernatant are taken into 96-well assay plates pre-added with 50 μL ultrapure water, and then analyzed by LC/MS/MS.
Concentrations of test articles, control compounds in the samples were determined by using LC/MS/MS method. Plotting of the chromatograms and peak area integrations are carried out by Analyst (AB Sciex).
In the determination of the in vitro elimination constant (ke) of the control compounds, the analyte/internal standard peak area ratios will be converted to percentage remaining (% Remaining) with the following equation:
The CLint of microsomes was calculated using the formula: CLint (mic)=0.693/T1/2/mg microsome protein per mL. The slope was measured by the natural logarithm of the percentage of the residual compound and time, T1/2 was calculated according to the following formula.

[3] = biological target: T2, JAK1-JH2 domain (Homo sapiens, UniProt P23458); assay: Binding activity test for JAK1 JH2 domain (Tb-antibody/tracer FRET); conditions: read-out: JAK1 JH2 Binding IC50
T2 construct: JAK1-JH2 domain or TYK2-JH2 domain enzyme
T2 sequence (P23458 583-855 limits assumed): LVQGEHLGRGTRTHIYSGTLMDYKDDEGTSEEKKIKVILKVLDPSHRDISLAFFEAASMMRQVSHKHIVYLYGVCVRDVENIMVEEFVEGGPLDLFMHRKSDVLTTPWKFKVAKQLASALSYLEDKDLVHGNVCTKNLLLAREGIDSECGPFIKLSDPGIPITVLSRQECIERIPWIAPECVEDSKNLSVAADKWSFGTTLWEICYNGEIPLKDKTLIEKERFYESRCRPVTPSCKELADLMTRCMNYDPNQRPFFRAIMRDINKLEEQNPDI
Procedure: Binding Activity test for JH2 domain of JAK and TYK2
75 nL DMSO for high control and low control.
For low control, add 5 μL/well assay buffer. […] After enzyme system prepared, add 5 μL of Tb-antibody solution into each wells of assay plate. […] After Tb-antibody added, also add 5 μL of tracer into the assay plate. […] Incubate for 60 mins at 25° C. firstly and then continue to incubate the plate at 4° C. overnight. Read by envision in FRET mode. The Luminescence value was recorded by a multi-label reader Envision (PerkinElmer). Inhibition Rate was calculated relative to vehicle (DMSO) treated control wells using following formula:
wherein • RLU_compound=the relative light unit of cells treated with test compounds • RLU_low control=the relative light unit of medium with DMSO only • RLU_high control=the relative light unit of cells treated with DMSO only

[4] = tested on: Ba/F3-FL-TYK2-P760L cells; assay: Anti-proliferative assay in Ba/F3-FL-TYK2-P760L cells (Cell-Titer Glo); type: cell-based
Procedure: These engineered Ba/F3-FL-TYK2-P760L cells were used to monitor JAK inhibitory activities of the compounds in the cellular. […] Cells were seeded at 2000/well of white flat bottom 96-well plates. The well containing medium only was used as background control. […] The test compounds were dissolved in DMSO to a stock concentration of 20 mM. […] The final DMSO concentration was 0.1%. […] The viability was measured by cellular ATP determination using the Cell-Titer Glo luciferase reagent (Promega). The Luminescence value was recorded by a multi-label reader Envision (PerkinElmer). Inhibition Rate was calculated relative to vehicle (DMSO) treated control wells using following formula:
wherein • RLU_compound=the relative light unit of cells treated with test compounds • RLU_blank=the relative light unit of medium with DMSO only • RLU_control=the relative light unit of cells treated with DMSO only

[5] = Kinetic solubility; type: physicochemical; conditions: aqueous buffer, 100 mM pH 7.4 phosphate buffer, 1% DMSO, room temperature, read-out: Kinetics Solubility_PBS7.4
Procedure: Aliquots of 8 μL of reference and test compound stock solutions (10 mM/5 mM) are added into 792 μL of 100 mM pH 7.4 phosphate buffer. The final DMSO concentration is 1%. Sample tubes are shaken for 2 hours at 1000 rpm at room temperature. Samples are centrifuged at 12000 rpm for 10 min to precipitate un-dissolved particles. And transfer the supernatants to a new tube or plate. Add 5 μL of samples (no diluted, 10 times diluted and 100 times diluted) and standard curve samples to 95 μL of ACN containing IS for LC-MS/MS analysis.

[6] = tested on: TYK2 pathway; assay: IFN-γ release in NK92 cells stimulated by IL-12 (ELISA); type: cell-based; conditions: Homo sapiens, IL-12 2.5 ng/mL
Text: IFN-γ Release in NK92 Cells Stimulated by IL-12
Purpose: To evaluate the inhibition activity of TYK2 inhibitors in NK92 cells on TYK2 pathway through ELISA method.

[7] = biological target: T3, TYK2 (Homo sapiens, UniProt P29597); assay: TYK2 kinase activity, microfluidic assay (Caliper); type: biochemical; conditions: TYK2 20 nM, 1 mM ATP
T3 construct: purchased Carna Biosciences
T3 sequence (P29597 897-1176 limits assumed): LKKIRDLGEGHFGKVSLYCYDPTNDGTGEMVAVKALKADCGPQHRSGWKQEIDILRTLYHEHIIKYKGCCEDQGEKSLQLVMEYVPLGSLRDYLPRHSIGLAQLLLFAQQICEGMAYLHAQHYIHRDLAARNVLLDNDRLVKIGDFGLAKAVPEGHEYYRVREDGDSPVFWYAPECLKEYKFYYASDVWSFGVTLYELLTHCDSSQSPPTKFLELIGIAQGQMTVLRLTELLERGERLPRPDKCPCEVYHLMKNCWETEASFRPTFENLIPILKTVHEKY
Procedure: (§1) Testing for JAK1, JAK2 and TYK2 Kinase Activities
(§2) JAK activity was determined in the reaction buffer 50 mM HEPES, 0.01% Brij35, 10 mM MgCl2, 2 mM DTT by a microfluidic assay. The phosphorylation of a FAM labeled peptide substrate was monitored in the Caliper EZ Reader II (Perkin Elmer). The assay condition for each batch of enzyme (Carna Biosciences) was optimized to obtain 10% conversion rate of peptide substrate.
(§3) The test compounds were dissolved in DMSO to a stock concentration of 10 mM. Three-fold serially diluted compounds with top concentration of 5 μM were pre-incubated with JAK1, JAK2 or TYK2 for 10 min at ambient temperature. The final DMSO concentration of assay mixture was 1%. […] The reaction was stopped by adding 50 mM EDTA.
(§4) And the well without compound but with equivalent DMSO was defined as no inhibition. The percent inhibition was calculated by the following formula:
(§5) wherein • Conversion %_max=the conversion rate in the positive well without addition of compound • Conversion %_sample=the conversion rate of test compounds • Conversion %_min=the conversion rate in the well without addition of enzyme
(§6) The dose-response (percent inhibition) curve was plotted and IC50 values were determined by GraphPad software. The IC50 values of tested compounds were list in Table 3.

[8] = biological target: T4, JAK1 (Homo sapiens, UniProt P23458); assay: JAK1 kinase activity, microfluidic assay (Caliper); type: biochemical; conditions: JAK1 10 nM, 1 mM ATP
T4 construct: purchased Carna Biosciences
T4 sequence (P23458 875-1153 limits assumed): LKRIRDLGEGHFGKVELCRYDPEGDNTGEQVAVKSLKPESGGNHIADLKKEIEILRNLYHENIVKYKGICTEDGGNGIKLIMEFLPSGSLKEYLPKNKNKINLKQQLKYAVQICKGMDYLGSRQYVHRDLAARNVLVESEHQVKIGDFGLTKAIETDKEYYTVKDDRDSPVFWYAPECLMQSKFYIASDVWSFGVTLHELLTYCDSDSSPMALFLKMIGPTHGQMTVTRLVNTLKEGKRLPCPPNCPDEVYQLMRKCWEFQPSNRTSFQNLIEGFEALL
Procedure: as §1, §2, §3, §4, §5, §6

[9] = biological target: T5, JAK2 (Homo sapiens, UniProt O60674); assay: JAK2 kinase activity, microfluidic assay (Caliper); type: biochemical; conditions: JAK2 1.5 nM, 1 mM ATP
T5 construct: purchased Carna Biosciences
T5 sequence (O60674 849-1124 limits assumed): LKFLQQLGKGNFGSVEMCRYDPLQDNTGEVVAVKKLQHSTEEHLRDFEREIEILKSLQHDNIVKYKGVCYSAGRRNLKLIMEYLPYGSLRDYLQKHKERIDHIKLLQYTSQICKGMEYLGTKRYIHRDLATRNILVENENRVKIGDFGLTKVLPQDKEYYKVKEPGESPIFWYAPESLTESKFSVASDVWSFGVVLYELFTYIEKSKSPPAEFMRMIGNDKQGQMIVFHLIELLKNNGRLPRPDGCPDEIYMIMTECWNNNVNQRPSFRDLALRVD
Procedure: as §1, §2, §3, §4, §5, §6

[10] = tested on: pSTAT1; assay: Phosphorylation inhibition of STAT in human whole blood (IFN-alpha stimulated, flow cytometry); type: cell-based; conditions: T-cell, CD3+ T cells, read-out: pSTAT1 inhibition in hWB (IC50)
Procedure: Phosphorylation Inhibition of STAT in Human Whole Blood Testing: The inhibitory potential of test articles in human whole blood assay was evaluated by the method of flow cytometry. IFN-alpha will activate JAK1 and TYK2 kinase in T cells by binding to IFN receptors, and then lead to phosphorylation of STAT1 and STAT2. The phosphorylated STAT1 enter nuclear and promote transcription and expression of IFN-gamma. To evaluate the efficacy of TYK2i in T cells, freshly collected human whole blood will be stimulated with certain unit of human IFN-alpha (Universal Type I IFN (1MU), R&D, 11200-2) for 20 mins in incubator. After stimulation, fix cells with PhosflowTM Fix Buffer I (BD, 557870), and then collect fixed cells by centrifugation (500 g, 8 min). Wash cells once with pre-cooled PBS, and then permeabilize cells with cold Perm Buffer III buffer (BD, 558050) for 45 mins on ice. Collect cells by centrifugation (600 g, 8 min) and washed twice with cold PBS. Stain cells with anti-human CD3(FITC Mouse Anti-Human CD3, BD, 555332) and anti-pSTAT1_Y701 (Alexa Fluor 647 Mouse Anti-Stat1 ([…]), BD, 612597) antibodies. Detect pSTAT1 by flow cytometry (CytoFlex S) and analyze data with FlowJo and GraphPad Prism 8 software. IC50 values of test articles were determined using 4-parameter logistic equation.

[11] = human liver microsomes 0.5 mg/mL, 1 μM

| Compound | JAK1/TYK2 selectivity [1] | IC50 [1] | Human LM Clint [2, 11] | Human LM T½ [2, 11] | IC50 [3] | IC50 [4] | solubility kinetic at 2 h [5] | IC50 [6] | microsomal CLint at 1 µM [2] | half-life at 1 µM [2] | IC50 [7] | IC50 [8] | IC50 [9] | IC50 [10] |
| --- | --- | --- | --- | --- | --- | --- | --- | --- | --- | --- | --- | --- | --- | --- |
| [2H]C([2H])([2H])NC(=O)c1cnc(NC(=O)C2CC2)cc1Nc1ncn2ncc(C(C)C(F)(F)F)c2c1OC (single isomer, unassigned) [Example 5B, (S*)-6-(Cyclopropanecarboxamido)-4-((4-methoxy-3-(1,1,1-trifluoropropan-2-yl)pyrazolo[1,5-c]pyrimidin-5-yl)amino)-N-(methyl-d3)nicotinamide] | 716.05 | 0.197 nM | 47.61 µL/min/mg | 29.11 min | 141 nM | 62.3 nM |  |  |  |  |  |  |  |  |
| [2H]C([2H])([2H])NC(=O)c1cnc(NC(=O)C2CC2)cc1Nc1ccc2ccn(CC(C)(F)F)c2c1OC [Example 17, 6-(Cyclopropanecarboxamido)-4-((1-(2,2-difluoropropyl)-7-methoxy-1H-indol-6-yl)amino)-N-(methyl-d3)nicotinamide] | 121.60 | 0.341 nM |  |  | 41.5 nM |  | 11.1 µM (≈ 5.12 µg/mL) | 21.7 nM |  |  |  |  |  |  |
| [2H]C([2H])([2H])NC(=O)c1cnc(NC(=O)C2CC2)cc1Nc1ncn2ncc(C(C)C(F)(F)F)c2c1OC (single isomer, unassigned) [Example 5A, (R*)-6-(Cyclopropanecarboxamido)-4((4-methoxy-3-(1,1,1-trifluoropropan-2-yl)pyrazolo[1,5-c]pyrimidin-5-yl)amino)-N-(methyl-d3)nicotinamide] | >197.55 | 1.51 nM |  |  | > 298 nM | > 5000 nM |  |  | 57.5 µL/min/mg | 24.1 min |  |  |  |  |
| [2H]C([2H])([2H])NC(=O)c1cnc(Nc2ccc(N3CCOCC3)cn2)cc1Nc1ccc2cnn(CC(C)(F)F)c2c1OC [Example 4, 4-((1-(2,2-Difluoropropyl)-7-methoxy-1H-indazol-6-yl)amino)-N-(methyl-d3)-6-((5-morpholinopyridin-2-yl)amino)nicotinamide] | 51.23 | 0.165 nM |  |  | 8.45 nM |  | 61.8 µM (≈ 34.3 µg/mL) | 14 nM |  |  | > 20000 nM | > 20000 nM | > 20000 nM | 152 nM |
| [2H]C([2H])([2H])NC(=O)c1cnc(NC(=O)C2CC2)cc1Nc1ncn2ncc(C(C)C(F)(F)F)c2c1OC (stereo not drawn) [Example 5, 6-(Cyclopropanecarboxamido)-4-((4-methoxy-3-(1,1,1-trifluoropropan-2-yl)pyrazolo[1,5-c]pyrimidin-5-yl)amino)-N-(methyl-d3)nicotinamide] | 590.59 | 0.271 nM | 50.06 µL/min/mg |  | 160 nM | 52.4 nM |  |  |  | 27.7 min |  |  |  |  |
| CNC(=O)c1cnc(NC(=O)C2CC2)cc1Nc1ncc2cnn(CC(C)(F)F)c2c1OC [Example 23, 6-(Cyclopropanecarboxamido)-4-((1-(2,2-difluoropropyl)-7-methoxy-1H-pyrazolo[4,3-c]pyridin-6-yl)amino)-N-methylnicotinamide] | 398.70 | 0.315 nM |  |  | 126 nM |  |  | 17.4 nM |  |  | > 20000 nM | > 20000 nM | > 20000 nM |  |
| [2H]C([2H])([2H])NC(=O)c1cnc(NC(=O)C2CC2)cc1Nc1ncc2cnn(C(C)C(F)(F)F)c2c1OC (stereo not drawn) [Example 3, 6-(Cyclopropanecarboxamido)-4-((7-methoxy-1-(1,1,1-trifluoropropan-2-yl)-1H-pyrazolo[4,3-c]pyridin-6-yl)amino)-N-(methyl-d3)nicotinamide] | 177.55 | 0.682 nM |  |  | 121 nM | 164 nM |  |  | 5.8 µL/min/mg | 239 min |  |  |  |  |
| [2H]C([2H])([2H])NC(=O)c1nnc(NC(=O)C2CC2)cc1Nc1ncc2cnn(CC(C)(F)F)c2c1OC [Example 24, 6-(Cyclopropanecarboxamido)-4-((1-(2,2-difluoropropyl)-7-methoxy-1H-pyrazolo[4,3-c]pyridin-6-yl)amino)-N-(methyl-d3)pyridazine-3-carboxamide] | 79.86 | 0.271 nM |  |  | 21.6 nM |  |  | 8.94 nM | 4.16 µL/min/mg | 333 min | > 20000 nM | > 20000 nM | > 20000 nM |  |
